Experimental data published in ChEMBL document CHEMBL1201861, “Genomics of Drug Sensitity in Cancer screening data, Wellcome Trust Sanger Institute”.

Legend:
Test in all cases: cells
Settings in all cases: Homo sapiens
D283 Med = assay type: functional, cell-based
Description: SANGER: Inhibition of human D-283MED cell growth in a cell viability assay.

ES3 = assay type: functional, cell-based;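 note: growth inhibition of ES3 cells, read out with a cell viability assay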
Description: SANGER: Inhibition of human ES3 cell growth in a cell viability assay.

EW-13 = assay type: functional, cell-based;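 note: growth inhibition of EW-13 cells, read out with a cell viability assay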
Description: SANGER: Inhibition of human EW-13 cell growth in a cell viability assay.

MFH-ino = assay type: functional, cell-based;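 note: growth inhibition of human MFH-ino cells, read out by a cell viability assay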
Description: SANGER: Inhibition of human MFH-ino cell growth in a cell viability assay.

KGN = assay type: functional, cell-based;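 note: growth inhibition of KGN cells, read out with a cell viability assay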
Description: SANGER: Inhibition of human KGN cell growth in a cell viability assay.

RPMI-8226 = assay type: functional, cell-based
Description: SANGER: Inhibition of human RPMI-8226 cell growth in a cell viability assay.

TE-6 = assay type: functional, cell-based;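 note: growth inhibition of TE-6 cells, read out with a cell viability assay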
Description: SANGER: Inhibition of human TE-6 cell growth in a cell viability assay.

EW-3 = assay type: functional, cell-based;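 note: cell viability assay read-out, IC50 reflects inhibition of growth of the EW-3 cells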
Description: SANGER: Inhibition of human EW-3 cell growth in a cell viability assay.

LB831-BLC = assay type: functional, cell-based;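 note: growth inhibition of LB831-BLC cells, read out with a cell viability assay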
Description: SANGER: Inhibition of human LB831-BLC cell growth in a cell viability assay.

JVM-3 = assay type: functional, cell-based;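 note: growth inhibition of human JVM-3 cells, read out with a cell viability assay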
Description: SANGER: Inhibition of human JVM-3 cell growth in a cell viability assay.

LOX IMVI = assay type: functional, cell-based
Description: SANGER: Inhibition of human LOXIMVI cell growth in a cell viability assay.

NB69 = assay type: functional, cell-based;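 note: growth inhibition of NB69 cells, determined by a cell viability assay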
Description: SANGER: Inhibition of human NB69 cell growth in a cell viability assay.

TE-11 = assay type: functional, cell-based;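 note: growth inhibition of human TE-11 cells, read out by a cell viability assay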
Description: SANGER: Inhibition of human TE-11 cell growth in a cell viability assay.

JAR = assay type: functional, cell-based;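 note: growth inhibition of human JAR cells determined with a cell viability assay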
Description: SANGER: Inhibition of human JAR cell growth in a cell viability assay.

TE-1 = assay type: functional, cell-based
Description: SANGER: Inhibition of human TE-1 cell growth in a cell viability assay.

NCI-H1581 = assay type: functional, cell-based;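 note: cell growth inhibition read out by a viability assay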
Description: SANGER: Inhibition of human NCI-H1581 cell growth in a cell viability assay.

A4-Fuk = assay type: functional, cell-based;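 note: growth inhibition of A4-Fuk cells, read out by a cell viability assay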
Description: SANGER: Inhibition of human A4-Fuk cell growth in a cell viability assay.

J-RT3-T3-5 = assay type: functional, cell-based;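 note: cell viability assay measuring growth inhibition of human J-RT3-T3-5 cells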
Description: SANGER: Inhibition of human J-RT3-T3-5 cell growth in a cell viability assay.

SCC-15 = assay type: functional, cell-based;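 note: growth inhibition of SCC-15 cells, read out with a cell viability assay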
Description: SANGER: Inhibition of human SCC-15 cell growth in a cell viability assay.

GI-1 = assay type: functional, cell-based;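 note: growth inhibition of human GI-1 cells, measured with a cell viability readout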
Description: SANGER: Inhibition of human GI-1 cell growth in a cell viability assay.

SK-PN-DW = assay type: functional, cell-based;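 note: growth inhibition measured with a viability assay on these cells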
Description: SANGER: Inhibition of human SK-PN-DW cell growth in a cell viability assay.

RKO = assay type: functional, cell-based;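 note: growth inhibition of human RKO cells, read out with a cell viability assay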
Description: SANGER: Inhibition of human RKO cell growth in a cell viability assay.

SK-MEL-1 = assay type: functional, cell-based;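 note: growth inhibition of human SK-MEL-1 cells, read out by a cell viability assay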
Description: SANGER: Inhibition of human SK-MEL-1 cell growth in a cell viability assay.

NCI-H1838 = assay type: functional, cell-based;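 note: growth inhibition of NCI-H1838 cells, determined with a cell viability readout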
Description: SANGER: Inhibition of human NCI-H1838 cell growth in a cell viability assay.

CTB-1 = assay type: functional, cell-based
Description: SANGER: Inhibition of human CTB-1 cell growth in a cell viability assay.

EW-16 = assay type: functional, cell-based;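 note: growth inhibition of human EW-16 cells, read out as cell viability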
Description: SANGER: Inhibition of human EW-16 cell growth in a cell viability assay.

MZ7-mel = assay type: functional, cell-based;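 note: growth inhibition of human MZ7-mel cells, measured by a cell viability assay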
Description: SANGER: Inhibition of human MZ7-mel cell growth in a cell viability assay.

C2BBe1 = assay type: functional, cell-based;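 note: growth inhibition of C2BBe1 cells, read out through a viability assay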
Description: SANGER: Inhibition of human C2BBe1 cell growth in a cell viability assay.

COLO-684 = assay type: functional, cell-based
Description: SANGER: Inhibition of human COLO-684 cell growth in a cell viability assay.

NCI-H209 = assay type: functional, cell-based;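 note: growth inhibition of human NCI-H209 cells, measured by a cell viability assay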
Description: SANGER: Inhibition of human NCI-H209 cell growth in a cell viability assay.

ES1 = assay type: functional, cell-based;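 note: growth inhibition of ES1 cells, read out with a cell viability assay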
Description: SANGER: Inhibition of human ES1 cell growth in a cell viability assay.

LS-411N = assay type: functional, cell-based
MS-1 = assay type: functional, cell-based;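 note: growth inhibition of MS-1 cells, read out by cell viability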
Description: SANGER: Inhibition of human MS-1 cell growth in a cell viability assay.

MZ1-PC = assay type: functional, cell-based;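 note: cell viability assay measuring growth inhibition of human MZ1-PC cells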
Description: SANGER: Inhibition of human MZ1-PC cell growth in a cell viability assay.

SW 954 = assay type: functional, cell-based;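 note: growth inhibition of SW954 human cancer cells, read out as cell viability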
Description: SANGER: Inhibition of human SW954 cell growth in a cell viability assay.

U-266 = assay type: functional, cell-based
Description: SANGER: Inhibition of human U-266 cell growth in a cell viability assay.

KM12 = assay type: functional, cell-based;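 note: KM12 cell growth inhibition, read out with a cell viability assay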
Description: SANGER: Inhibition of human KM12 cell growth in a cell viability assay.

GR-ST = assay type: functional, cell-based
Description: SANGER: Inhibition of human GR-ST cell growth in a cell viability assay.

NMC-G1 = assay type: functional, cell-based;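 note: growth inhibition of the NMC-G1 cell line, measured with a cell viability read-out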
Description: SANGER: Inhibition of human NMC-G1 cell growth in a cell viability assay.

MOLT-4 = assay type: functional, cell-based;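 note: growth inhibition of MOLT-4 cells, determined with a cell viability readout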
Description: SANGER: Inhibition of human MOLT-4 cell growth in a cell viability assay.

GB-1 = assay type: functional, cell-based;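 note: growth of GB-1 cells judged by a viability assay, IC50 marks the concentration inhibiting growth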
Description: SANGER: Inhibition of human GB-1 cell growth in a cell viability assay.

NCI-H526 = assay type: functional, cell-based;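 note: growth inhibition of the human NCI-H526 cell line, measured by a cell viability assay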
Description: SANGER: Inhibition of human NCI-H526 cell growth in a cell viability assay.

NCI-H1648 = assay type: functional, cell-based;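 note: cell viability assay measuring inhibition of NCI-H1648 cell growth, from the Sanger screening data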
Description: SANGER: Inhibition of human NCI-H1648 cell growth in a cell viability assay.

ES6 = assay type: functional, cell-based;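 note: growth inhibition of human ES6 cells, read out with a cell viability assay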
Description: SANGER: Inhibition of human ES6 cell growth in a cell viability assay.

COR-L88 = assay type: functional, cell-based;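 note: growth inhibition of COR-L88 cells, read out with a cell viability assay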
Description: SANGER: Inhibition of human COR-L88 cell growth in a cell viability assay.

HCE-4 = assay type: functional, cell-based;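 note: cell viability assay measuring inhibition of growth in the human HCE-4 cell line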
Description: SANGER: Inhibition of human HCE-4 cell growth in a cell viability assay.

SBC-1 = assay type: functional, cell-based;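 note: cell viability assay measuring growth inhibition of the SBC-1 cell line, IC50 being the concentration that halves growth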
Description: SANGER: Inhibition of human SBC-1 cell growth in a cell viability assay.

HDLM-2 = assay type: functional, cell-based;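 note: cell viability assay measuring suppression of HDLM-2 proliferation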
Description: SANGER: Inhibition of human HDLM-2 cell growth in a cell viability assay.

ES8 = assay type: functional, cell-based;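 note: growth inhibition of human ES8 cells, read out with a cell viability assay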
Description: SANGER: Inhibition of human ES8 cell growth in a cell viability assay.

KG-1 = assay type: functional, cell-based;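 note: growth inhibition of KG-1 cells, read out by a cell viability assay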
Description: SANGER: Inhibition of human KG-1 cell growth in a cell viability assay.

MV4-11 = assay type: functional, cell-based, MV-4-11;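 note: cell viability readout measuring growth inhibition of human MV-4-11 cells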
Description: SANGER: Inhibition of human MV-4-11 cell growth in a cell viability assay.

DB = assay type: functional, cell-based
Description: SANGER: Inhibition of human DB cell growth in a cell viability assay.

LB1047-RCC = assay type: functional, cell-based;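 note: inhibition of cell growth, determined with a cell viability assay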
Description: SANGER: Inhibition of human LB1047-RCC cell growth in a cell viability assay.

697 = assay type: functional, cell-based
Description: SANGER: Inhibition of human 697 cell growth in a cell viability assay.

BB49-HNC = assay type: functional, cell-based;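 note: cell viability assay read-out, reported as inhibition of BB49-HNC cell growth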
Description: SANGER: Inhibition of human BB49-HNC cell growth in a cell viability assay.

ACN = assay type: functional, cell-based;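 note: growth inhibition of the human ACN cell line, read out via cell viability testing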
Description: SANGER: Inhibition of human ACN cell growth in a cell viability assay.

NCI-H1355 = assay type: functional, cell-based;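 note: growth inhibition of human NCI-H1355 cells, read out by a cell viability assay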
Description: SANGER: Inhibition of human NCI-H1355 cell growth in a cell viability assay.

K5 = assay type: functional, cell-based
Description: SANGER: Inhibition of human K5 cell growth in a cell viability assay.

TE-5 = assay type: functional, cell-based;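 note: inhibition of cell growth, read out by a cell viability assay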
Description: SANGER: Inhibition of human TE-5 cell growth in a cell viability assay.

TE-9 = assay type: functional, cell-based;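 note: cell growth inhibition, measured with a cell viability readout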
Description: SANGER: Inhibition of human TE-9 cell growth in a cell viability assay.

LB771-HNC = assay type: functional, cell-based;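 note: growth inhibition of LB771-HNC human cells, read out with a cell viability assay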
Description: SANGER: Inhibition of human LB771-HNC cell growth in a cell viability assay.

CGTH-W-1 = assay type: functional, cell-based
Description: SANGER: Inhibition of human CGTH-W-1 cell growth in a cell viability assay.

HEL = assay type: functional, cell-based
Description: SANGER: Inhibition of human HEL cell growth in a cell viability assay.

A388 = assay type: functional, cell-based
Description: SANGER: Inhibition of human A388 cell growth in a cell viability assay.

MOLT-16 = assay type: functional, cell-based
Description: SANGER: Inhibition of human MOLT-16 cell growth in a cell viability assay.

KP-N-YS = assay type: functional, cell-based
Description: SANGER: Inhibition of human KP-N-YS cell growth in a cell viability assay.

Work on `CO[C@@]12[C@H](COC(N)=O)C3=C(C(=O)C(C)=C(N)C3=O)N1C[C@@H]1N[C@@H]12` [MITOMYCIN] yielded an IC50 (D283 Med) of 221 nM, an IC50 (ES3) of under 62.5 nM and an IC50 (EW-13) of 52.5 nM. For the same molecule, the IC50 (MFH-ino) was 70.6 nM, the IC50 (KGN) was 207 nM and the IC50 (RPMI-8226) was 1240 nM. The IC50 (TE-6) was 894 nM, the IC50 (EW-3) was 61.9 nM and the IC50 (LB831-BLC) was 816 nM. The IC50 (JVM-3) was 2650 nM, the IC50 (LOX IMVI) was 353 nM and the IC50 (NB69) was 175 nM. It also gave an IC50 (TE-11) of 91.8 nM, an IC50 (JAR) of 4560 nM and an IC50 (TE-1) of 165 nM. The IC50 (NCI-H1581) was 907 nM, the IC50 (A4-Fuk) was 225 nM and the IC50 (J-RT3-T3-5) was 186 nM. For the same molecule, the IC50 (SCC-15) was 864 nM, the IC50 (GI-1) was 35.2 nM and the IC50 (SK-PN-DW) was 63.8 nM. For the same molecule, the IC50 (RKO) was 125 nM, the IC50 (SK-MEL-1) was 1890 nM and the IC50 (NCI-H1838) was 404 nM. The IC50 (CTB-1) was 306 nM, the IC50 (EW-16) was under 62.5 nM and the IC50 (MZ7-mel) was 333 nM. The IC50 (C2BBe1) was 9280 nM, the IC50 (COLO-684) was 799 nM and the IC50 (NCI-H209) was under 62.5 nM. For the same molecule, the IC50 (ES1) was under 62.5 nM, the IC50 (LS-411N) was 322 nM and the IC50 (MS-1) was 344 nM. The IC50 (MZ1-PC) was 450 nM, the IC50 (SW 954) was 44.9 nM and the IC50 (U-266) was 866 nM. For the same molecule, the IC50 (KM12) was 1080 nM, the IC50 (GR-ST) was 121 nM and the IC50 (NMC-G1) was 217 nM. The IC50 (MOLT-4) was under 62.5 nM, the IC50 (GB-1) was 452 nM and the IC50 (NCI-H526) was 67.4 nM. It also gave an IC50 (NCI-H1648) of 523 nM, an IC50 (ES6) of 746 nM and an IC50 (COR-L88) of 319 nM. The IC50 (HCE-4) was 57.9 nM, the IC50 (SBC-1) was 448 nM and the IC50 (HDLM-2) was 1460 nM. It also gave an IC50 (ES8) of under 62.5 nM, an IC50 (KG-1) of 597 nM and an IC50 (MV4-11) of under 62.5 nM. For the same molecule, the IC50 (DB) was 430 nM, the IC50 (LB1047-RCC) was under 62.5 nM and the IC50 697 was under 62.5 nM. It also gave an IC50 (BB49-HNC) of 353 nM, an IC50 (ACN) of 128 nM and an IC50 (NCI-H1355) of 117 nM. For the same molecule, the IC50 (K5) was 1780 nM, the IC50 (TE-5) was 132 nM and the IC50 (TE-9) was 500 nM. The IC50 (LB771-HNC) was 780 nM, the IC50 (CGTH-W-1) was 38.7 nM and the IC50 (HEL) was 35.8 nM. It also gave an IC50 (A388) of 207 nM and an IC50 (MOLT-16) of 585 nM.

Work on `CC[C@@]1(O)C(=O)OCc2c1cc1n(c2=O)Cc2cc3ccccc3nc2-1` [CAMPTOTHECIN] yielded an IC50 (D283 Med) of 3.2 nM, an IC50 (ES3) of 0.931 nM and an IC50 (EW-13) of 3.27 nM. It also gave an IC50 (MFH-ino) of 27.1 nM, an IC50 (KGN) of 10.6 nM and an IC50 (RPMI-8226) of 29.5 nM. For the same molecule, the IC50 (EW-3) was 0.319 nM, the IC50 (LB831-BLC) was 18.4 nM and the IC50 (JVM-3) was 2.5 nM. For the same molecule, the IC50 (LOX IMVI) was 3.72 nM, the IC50 (NB69) was 0.569 nM and the IC50 (TE-11) was 16.3 nM. For the same molecule, the IC50 (JAR) was 14.5 nM, the IC50 (TE-1) was 35.1 nM and the IC50 (NCI-H1581) was 33.5 nM. It also gave an IC50 (A4-Fuk) of 1.75 nM, an IC50 (J-RT3-T3-5) of 2.58 nM and an IC50 (SCC-15) of 18.6 nM. For the same molecule, the IC50 (GI-1) was 3.37 nM, the IC50 (SK-PN-DW) was 1.16 nM and the IC50 (RKO) was 4.23 nM. The IC50 (SK-MEL-1) was 51.3 nM, the IC50 (CTB-1) was 0.429 nM and the IC50 (EW-16) was 0.121 nM. The IC50 (MZ7-mel) was 8.61 nM, the IC50 (C2BBe1) was 2.44 nM and the IC50 (COLO-684) was 13.8 nM. The IC50 (NCI-H209) was 0.0484 nM, the IC50 (ES1) was 0.0957 nM and the IC50 (LS-411N) was 58.1 nM. It also gave an IC50 (MS-1) of 2.77 nM, an IC50 (MZ1-PC) of 20.3 nM and an IC50 (SW 954) of 20.3 nM. For the same molecule, the IC50 (U-266) was 69.5 nM, the IC50 (KM12) was 75 nM and the IC50 (GR-ST) was 0.701 nM. It also gave an IC50 (NMC-G1) of 19.8 nM, an IC50 (MOLT-4) of 1.62 nM and an IC50 (GB-1) of 4.68 nM. For the same molecule, the IC50 (NCI-H526) was 1.03 nM, the IC50 (NCI-H1648) was 38.1 nM and the IC50 (ES6) was 88 nM. For the same molecule, the IC50 (COR-L88) was 40.9 nM, the IC50 (HCE-4) was 1.81 nM and the IC50 (SBC-1) was 27.8 nM. The IC50 (ES8) was 0.796 nM, the IC50 (KG-1) was 1.11 nM and the IC50 (MV4-11) was 0.706 nM. For the same molecule, the IC50 (DB) was 1.16 nM, the IC50 (LB1047-RCC) was 7.9 nM and the IC50 697 was 2.03 nM. It also gave an IC50 (ACN) of 85.7 nM, an IC50 (NCI-H1355) of 66.1 nM and an IC50 (KP-N-YS) of over 100 nM. For the same molecule, the IC50 (K5) was 3.2 nM, the IC50 (TE-5) was 7.38 nM and the IC50 (TE-9) was 23.7 nM. The IC50 (CGTH-W-1) was 3.27 nM, the IC50 (HEL) was 6.31 nM and the IC50 (A388) was 10.1 nM. For the same molecule, the IC50 (MOLT-16) was 0.732 nM.
